# How the values were obtained:
# SNU449 xenograft = conditions: nude mice, lenvatinib 4 mg/kg, gefitinib 80 mg/kg, about 27 days
# advanced HCC = conditions: first-line treatment of advanced HCC; cited from earlier work
# advanced HCC patients = conditions: clinical trials; cited from earlier work
# EGFR = test: western blot with phospho-protein-specific antibodies, EGFR activation; type: cell-based, human; conditions: three EGFR-high liver cancer cell lines
# Description: (§1) FIG. 3. […] Activation of EGFR and ERK1/2 was analyzed. HSP90 served as a control.
# VEGFR family = conditions: cited from earlier work
# ERK1/2 = test: western blot with phospho-protein-specific antibodies, ERK1/2 activation; type: cell-based, human; conditions: three EGFR-high liver cancer cell lines
# Description: as §1
# SNU449 cells = test: EGFR shRNA knockdown with lenvatinib, proliferation; type: cell-based, human; conditions: SNU449 cells with EGFR shRNA vectors, about 10 days
# Description: FIG. 1. […] Cell growth was assessed by a colony formation assay. […] Viability was assessed by CellTiter-Blue assays. (c) The level of EGFR knockdown was determined by western blot for three independent shRNAs. HSP90 protein level served as a loading control.
# After this, genomic DNA was isolated from both treated and untreated cells, and the relative abundance of gRNA was determined by next generation sequencing of the bar code contained in each gRNA vector in three biological replicates as described (Evers et al., 2016. Nat Biotechnol 34: 631-3).
# FGFR2 = FGFR2 (Homo sapiens, UniProt P21802); conditions: cited from earlier work
# Chain of FGFR2 (P21802 22-821, species assumed): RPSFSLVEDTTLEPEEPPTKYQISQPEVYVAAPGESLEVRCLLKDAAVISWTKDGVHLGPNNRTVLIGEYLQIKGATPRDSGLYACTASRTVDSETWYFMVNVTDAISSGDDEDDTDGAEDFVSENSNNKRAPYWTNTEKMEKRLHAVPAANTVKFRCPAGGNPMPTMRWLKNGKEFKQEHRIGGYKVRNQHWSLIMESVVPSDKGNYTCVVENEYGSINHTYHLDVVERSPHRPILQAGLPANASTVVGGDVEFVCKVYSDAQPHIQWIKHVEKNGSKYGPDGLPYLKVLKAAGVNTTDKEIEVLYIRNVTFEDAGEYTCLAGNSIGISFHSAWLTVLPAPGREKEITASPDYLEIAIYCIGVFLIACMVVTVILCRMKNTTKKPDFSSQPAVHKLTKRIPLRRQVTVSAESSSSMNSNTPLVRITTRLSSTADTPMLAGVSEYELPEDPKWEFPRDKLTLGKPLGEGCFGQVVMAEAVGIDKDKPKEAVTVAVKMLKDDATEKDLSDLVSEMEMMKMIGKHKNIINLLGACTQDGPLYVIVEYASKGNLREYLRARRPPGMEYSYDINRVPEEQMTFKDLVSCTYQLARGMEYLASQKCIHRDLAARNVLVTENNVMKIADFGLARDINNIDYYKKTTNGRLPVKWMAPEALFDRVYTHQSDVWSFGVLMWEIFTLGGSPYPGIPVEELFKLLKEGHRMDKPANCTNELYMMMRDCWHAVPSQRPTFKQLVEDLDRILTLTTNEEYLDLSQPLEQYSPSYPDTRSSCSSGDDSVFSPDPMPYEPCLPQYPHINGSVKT
Structure (SMILES),tumor growth / antitumor effect (SNU449 xenograft),overall survival (advanced HCC) [months],improvement of survival compared to placebo (advanced HCC patients),Tyr 1068 phosphorylation of EGFR (activation of the receptor) (EGFR),Ki (VEGFR family) [nM],phosphorylation (activation) of ERK1/2 (ERK1/2),proliferation with suppression of EGFR (shRNA) in combination (SNU449 cells),Ki (FGFR2) [nM]
"COc1cc2ncnc(Nc3ccc(F)c(Cl)c3)c2cc1OCCCN1CCOCC1 [gefitinib, N-(3-chloro-4-fluorophenyl)-7-methoxy-6-(3-morpholin-4-ylpropoxy)quinazolin-4-amine]",little antitumor effect,,,,,,,
"CNC(=O)c1cc(Oc2ccc(NC(=O)Nc3ccc(Cl)c(C(F)(F)F)c3)cc2)ccn1 [sorafenib, 4-[4-[[4-chloro-3-(trifluoromethyl)phenyl]carbamoylamino]phenoxy]-N-methylpyridine-2-carboxamide]",,12.3,less than 3 months,,,,,
"COc1cc2nccc(Oc3ccc(NC(=O)NC4CC4)c(Cl)c3)c2cc1C(N)=O [lenvatinib, 4-[3-chloro-4-(cyclopropylcarbamoylamino)phenoxy]-7-methoxyquinoline-6-carboxamide]",little antitumor effect,13.6,,strong increase,1,strong increase,marked inhibition of proliferation,8.21

# — US20220280499A1, “NOVEL DRUG COMBINATIONS FOR TREATMENT OF A CARCINOMA” (Stichting Het Nederlands Kanker Instituue-Antoni van …, priority 2019, published 2022)
